Assays:
[1] = test system: Candida albicans; assay: Antifungal activity against Candida albicans ATCC 90028 assessed as diameter of inhibition zone at 10 mg/ml by disk diffusion assay; type: functional; details: read-out: DIZ
[2] = test system: Pseudomonas aeruginosa; assay: Antibacterial activity against Pseudomonas aeruginosa ATCC 27853 assessed as diameter of inhibition zone at 10 mg/ml by disk diffusion assay; type: functional; details: read-out: DIZ
[3] = test system: L6; assay: Cytotoxicity against rat L6 cells after 70 hrs by Alamar blue assay; type: cell-based; details: L6, 70 h, read-out: IC50
[4] = test system: U-251; assay: Cytotoxicity against human U-251 cells assessed as inhibition of cell growth at 50 uM after 72 hrs by XTT assay relative to control; type: functional
[5] = test system: Staphylococcus epidermidis; assay: Antibacterial activity against Staphylococcus epidermis ATCC 12228 assessed as diameter of inhibition zone at 10 mg/ml by disk diffusion assay; type: functional; details: read-out: DIZ
[6] = Selectivity index, ratio of IC50 for rat L6 cells to IC50 for chloroquine and pyrimethamine resistant Plasmodium falciparum K1; type: toxicity; details: read-out: Ratio IC50
[7] = Selectivity index, ratio of IC50 for rat L6 cells to IC50 for Plasmodium falciparum NF54; type: toxicity; details: read-out: Ratio IC50
[8] = test system: Escherichia coli; assay: Antibacterial activity against Escherichia coli ATCC 25922 assessed as diameter of inhibition zone at 10 mg/ml by disk diffusion assay; type: functional; details: read-out: DIZ
[9] = test system: HCT-116; assay: Cytotoxicity against human HCT-116 cells assessed as inhibition of cell growth at 50 uM after 72 hrs by XTT assay relative to control; type: functional
[10] = test system: Plasmodium falciparum; assay: Antiplasmodial activity against chloroquine and pyrimethamine resistant Plasmodium falciparum K1 strain; type: functional, organism-based
[11] = test system: Trypanosoma brucei rhodesiense; assay: Trypanocidal activity against Trypanosoma brucei rhodesiense STIB900 incubated for 70 hrs by Alamar blue assay; type: functional, organism-based; details: STIB900, 70 h
[12] = Selectivity index, ratio of IC50 for rat L6 cells to IC50 for Trypanosoma brucei rhodesiense STIB900; type: toxicity; details: read-out: Ratio IC50
[13] = test system: Plasmodium falciparum; assay: Antiplasmodial activity against Plasmodium falciparum NF54 erythrocytic stages assessed as reduction in [3H]hypoxanthine incorporation measured after 48 hrs by liquid scintillation counting method; type: functional, organism-based
[14] = test system: Staphylococcus aureus; assay: Antibacterial activity against Staphylococcus aureus ATCC 29213 assessed as diameter of inhibition zone at 10 mg/ml by disk diffusion assay; type: functional; details: read-out: DIZ

Compound | zone of inhibition at 10000 µg/mL [1] | zone of inhibition at 10000 µg/mL [2] | IC50 [3] | inhibition at 50 µM [4] | zone of inhibition at 10000 µg/mL [5] | selectivity ratio [6] | selectivity ratio [7] | zone of inhibition at 10000 µg/mL [8] | inhibition at 50 µM [9] | IC50 [10] | IC50 [11] | selectivity ratio [12] | IC50 [13] | zone of inhibition at 10000 µg/mL [14]
CC1(C)C(Cc2c(Cl)cccc2Cl)C(=[N+]2CCCC2)C=CN1Cc1ccc(Cl)cc1 (racemic) | 20 mm | 12 mm | 4530 nM | 100% | 33 mm | 755 | 1260 | 15 mm | 100% | 6 nM | 52 nM | 87.1 | 3.6 nM | 21 mm
CC1(C)C(Cc2ccc(Cl)cc2)C(=[N+]2CCCCC2)C=CN1Cc1ccc(Cl)cc1 (racemic) | 26 mm | 7 mm | 11100 nM | 100% | 28 mm | 29200 | 2920 | 14 mm | 100% | 0.38 nM | 140 nM | 79.3 | 3.8 nM | 22 mm

— ChEMBL document CHEMBL4732090, “Preparation of new 1,3-dibenzyl tetrahydropyridinylidene ammonium salts and their antimicrobial and anticellular activities” (Eur J Med Chem, 2021)
